Drawing on the OligoGym collection, this text covers target mRNA inhibition for 76 sequences.

The target in the data set is HSD17B13. Particulars: ASO, HepaRG.

After the bases stand the sugars from the 5' end (letter, count) and the backbone: PS all phosphorothioate, else s phosphorothioate and o phosphodiester by linkage. Methylation of C is not given here. e = 2'-O-(2-methoxyethyl) (MOE); k = constrained ethyl (cEt); d = 2'-deoxy (DNA); m = 2'-O-methyl

On to “ATGTGAAGAGCTGGTA (sugars k3 d1 m1 d8 k3, PS)”, for which the target mRNA inhibition (1 µM) stood at 26%.
The same measure, in the same setting: the figure for TATGTAATAGCCAGTA (sugars k3 d10 k3, PS) is 50%.
Same read-out and setting: then TCAAAAAGGCCCAAGG (sugars k3 d10 k3, PS), with 46%; and GAATTCACTATCTCCC (sugars k3 d10 k3, PS), with 38%.
Same read-out and setting: the figure for CAAAGTTTGGGCAGAG (sugars k3 d10 k3, PS) is 44%; for GGCTTTATCATTCTAA (sugars k3 d10 k3, PS) it is 20%.
Where the note is “1 µM”, “TTTCTTATGTAATAGC (sugars kkdddddddddkekek, PS)” gave a target mRNA inhibition of 60%.
On the same count and under the same terms, then CACCATGACAGCTTCA (sugars k3 d10 k3, PS), with 65%.
Same read-out and setting: the figure for CCTAGTTGCAATGAGA (sugars k3 d10 k3, PS) is 77%.
Turning to “TAGTGCCAAACCAATG (sugars kkdddddddddkekek, PS)”, the target mRNA inhibition is, setting by setting: (0.02 µM) 11%; (0.078 µM) 18%; (0.313 µM) 27%; (1 µM) 66%; (1.25 µM) 53%; (5 µM) 57%.
Regarding AGACTTCTTACGACTT (sugars k3 d10 k3, PS), for the setting “1 µM”, the target mRNA inhibition turned out to be 41%.
Still for that read-out and setting: then “CCATCTATCAGACTTC (sugars k3 d9 k3 e1, PS)”, with 60%; and AGGATAGTCCATGCAA (sugars k3 d10 k3, PS), with 64%; and CACCATGAAGGACTCC (sugars k3 d10 k3, PS), with 48%.
In turn, ACTTCACCAACGACTC (sugars k3 d10 k3, PS) returned a target mRNA inhibition (1 µM) of 15%.
The sequence CTAAACTAGTGGTAAT (sugars k3 d10 k3, PS) had a target mRNA inhibition (1 µM) of 23%.
Same read-out and setting: the figure for GCTATAACTGGAAGGA (sugars k3 d10 k3, PS) is 58%.
As for AGTAGGAGTAGATGAT (sugars k3 d10 k3, PS), the target mRNA inhibition (1 µM) was 0%.
On the same count and under the same terms, the figure for GTGGGAGTCGGATTAT (sugars k3 d10 k3, PS) is 37%; for AGTGCCAAACCAATGT (sugars k3 d10 k3, PS) it is 62%.
On the same count and under the same terms, then TTGAATTCACTATCTC (sugars k3 d10 k3, PS), with 45%.
As to GATGATGTTCATGGCT (sugars k3 d10 k3, PS), the target mRNA inhibition runs as follows: (0.02 µM) 3%; (0.078 µM) 17%; (0.313 µM) 70%; (1 µM) 86%; (1.25 µM) 85%.
Take GATGAGGTAAGGAATC (sugars k3 d10 k3, PS): the target mRNA inhibition (1 µM) is 0%.
On the same count and under the same terms, then TGCAGCATTGATTCGA (sugars k3 d10 k3, PS), with 47%.
For the sequence TTTGAGCCTAAAATTG (sugars k3 d10 k3, PS), the target mRNA inhibition (1 µM) amounted to 26%.
The same measure, in the same setting: the figure for AGAAATTCACCTTGAC (sugars k3 d10 k3, PS) is 39%; for ATCCAAAGATGAGAGT (sugars k3 d10 k3, PS) it is 5%; for ATTGAATAGCCATGTA (sugars k3 d10 k3, PS) it is 39%.
For the setting “1 µM”, CAATTCACATATGTGA (sugars k3 d10 k3, PS) had a target mRNA inhibition of 11%.
TTCTCTCCATCATCGA (sugars k3 d10 k3, PS) showed a target mRNA inhibition (1 µM) of 35%.
On the same count and under the same terms, then CTATCAGACTTCTTAC (sugars k3 d10 k3, PS), with 39%; and CGCGCTTATTAATATC (sugars k3 d10 k3, PS), with 6%; and CAAGTAAGGTAAAGTC (sugars k3 d10 k3, PS), with 33%.
As for AGTATGTGAACTCCGT (sugars k3 d10 k3, PS), the target mRNA inhibition by setting is: (0.02 µM) 0%; (0.078 µM) 5%; (0.313 µM) 30%; (1 µM) 81%; (1.25 µM) 67%; (5 µM) 86%.
For AAACATGGATGTTAGG (sugars k3 d10 k3, PS), where the note is “1 µM”, the target mRNA inhibition is 56%.
Consider TGGTAAGTATTCCATC (sugars k3 d10 k3, PS), for which the target mRNA inhibition (1 µM) is 26%.
Still for that read-out and setting: the figure for “AATTGATACACCAATG (sugars k3 d1 m1 d8 k3, PS)” is 40%; for ATATGTGAAGAGCTGG (sugars k3 d10 k3, PS) it is 51%; for “GCCTTGAATAGCAAGC (sugars k3 d9 k3 e1, PS)” it is 38%.
Still for that read-out and setting: then “CAGTUTTCCTCATGAT (sugars k3 d1 m1 d8 k3, PS)”, with 0%; and AAGTTATTATCCCCAC (sugars k3 d10 k3, PS), with 60%; and TTCTACAGAAGACTAC (sugars k3 d10 k3, PS), with 40%.
Turning to ATGTGAAGAGCTGGTA (sugars k3 d10 k3, PS), for the setting “1 µM”, the target mRNA inhibition came out at 42%.
As to TAGTGTAAGCTGAGAG (sugars k3 d10 k3, PS), the target mRNA inhibition reads like this: (0.02 µM) 0%; (0.078 µM) 0%; (0.313 µM) 2%; (1 µM) 75%; (1.25 µM) 48%; (5 µM) 83%.
In the case of “TTGCAGTTATTAGAAG (sugars k3 d9 k3 e1, PS)”, the target mRNA inhibition (1 µM) was 10%.
On the same count and under the same terms, then AAGGAGTATGACAACT (sugars k3 d10 k3, PS), with 28%; and TGAAGATTAGTTAACC (sugars k3 d10 k3, PS), with 21%.
On the same count and under the same terms, then GACTTTCATAGGGAGA (sugars k3 d10 k3, PS), with 72%; and TGATTAAGCAGAATTG (sugars k3 d10 k3, PS), with 57%.
Still for that read-out and setting: then GACAATGTGCAGCTCT (sugars k3 d10 k3, PS), with 67%.
Sequence CCACAGAACCAATATG (sugars k3 d10 k3, PS) showed a target mRNA inhibition (1 µM) of 49%.
Same read-out and setting: then TACGACAGGTCATCTT (sugars k3 d10 k3, PS), with 58%; and CAAGACATTCTAGCCT (sugars k3 d10 k3, PS), with 58%; and AGTACAGTTCCTTTTC (sugars k3 d10 k3, PS), with 69%.
Regarding CTTATGAAGTTAGTAT (sugars k3 d10 k3, PS), where the note is “1 µM”, the target mRNA inhibition worked out at 43%.
Still for that read-out and setting: then AGTAATGAGAACAATC (sugars k3 d10 k3, PS), with 45%.
On to AGAGTTGCACCGTTTT (sugars k3 d10 k3, PS), for which the target mRNA inhibition by setting is: (0.02 µM) 5%; (0.078 µM) 11%; (0.313 µM) 40%; (1 µM) 76%; (1.25 µM) 81%; (5 µM) 87%.
TACATTACAGCCTTAG (sugars k3 d10 k3, PS) showed a target mRNA inhibition (0.02 µM) of 0%; a target mRNA inhibition (0.078 µM) of 2%; a target mRNA inhibition (0.313 µM) of 15%; a target mRNA inhibition (1 µM) of 75%; a target mRNA inhibition (1.25 µM) of 71%; a target mRNA inhibition (5 µM) of 85%.
Turning to “GTATAGTTATCTTCTC (sugars kkdddddddddkekek, PS)”, the target mRNA inhibition (1 µM) is 49%.
The same measure, in the same setting: then TTGTCTAAACATCTCT (sugars k3 d10 k3, PS), with 60%.
On the same count and under the same terms, then “TGCATCTTAAGATACC (sugars kkdddddddddkekek, PS)”, with 24%; and “CAGGGTGGTAACGGTG (sugars k3 d1 m1 d8 k3, PS)”, with 29%.
Sequence GTAGATGGTAAGTCAA (sugars k3 d10 k3, PS) showed a target mRNA inhibition (0.02 µM) of 20%; a target mRNA inhibition (0.078 µM) of 35%; a target mRNA inhibition (0.313 µM) of 55%; a target mRNA inhibition (1 µM) of 86%; a target mRNA inhibition (1.25 µM) of 84%; a target mRNA inhibition (5 µM) of 88%.
In turn, GATTAGTCTTGATGTA (sugars k3 d10 k3, PS) showed a target mRNA inhibition (1 µM) of 65%.
For the sequence GTGTTCTTGTTGATAT (sugars k3 d10 k3, PS), the target mRNA inhibition (0.02 µM) stood at 13%; the target mRNA inhibition (0.078 µM) stood at 25%; the target mRNA inhibition (0.313 µM) was determined as 59%; the target mRNA inhibition (1 µM) amounted to 81%; the target mRNA inhibition (1.25 µM) is 80%; the target mRNA inhibition (5 µM) was 93%.
Take CTGGAACAATATGGGA (sugars k3 d10 k3, PS): under “1 µM”, the target mRNA inhibition was found to be 38%.
The same measure, in the same setting: then “CCTCGATCCTATATAC (sugars k3 d1 m1 d8 k3, PS)”, with 9%.
Same read-out and setting: then “GTGCCAAACCAATGTT (sugars k3 d1 m1 d8 k3, PS)”, with 30%; and “GCTGCTAGTGCCAAAC (sugars k3 d9 k3 e1, PS)”, with 62%.
The same measure, in the same setting: then GAGTATGACAACTGGA (sugars k3 d10 k3, PS), with 23%; and “TCCCAACCAAACTTCC (sugars k3 d9 k3 e1, PS)”, with 24%.
The sequence TTCTATGCAAGCCTTC (sugars k3 d10 k3, PS) yielded a target mRNA inhibition (1 µM) of 51%.
In the case of CTATCATGCCTTCCCC (sugars k3 d10 k3, PS), for the setting “1 µM”, the target mRNA inhibition was 1%.
The sequence AGCATTCCATGATTAA (sugars k3 d10 k3, PS) came in with a target mRNA inhibition (1 µM) of 47%.
As for “ATCCTATATACATCCA (sugars k3 d9 k3 e1, PS)”, the target mRNA inhibition is, setting by setting: (0.02 µM) 0%; (0.078 µM) 7%; (0.313 µM) 39%; (1 µM) 75%; (1.25 µM) 55%; (5 µM) 76%.
In turn, TCCACTTTTGGTGGAC (sugars k3 d10 k3, PS) yielded a target mRNA inhibition (1 µM) of 16%.
